IC50 data for 25 compounds are collected here from US20250186391A1, “ORAL COMPLEMENT FACTOR D INHIBITORS” (BioCryst Pharmaceuticals, Inc., priority 2019, published 2025).

A value given as a limit tells only on which side of the number the result lay.

Chain of Factor D (P00746 26-253): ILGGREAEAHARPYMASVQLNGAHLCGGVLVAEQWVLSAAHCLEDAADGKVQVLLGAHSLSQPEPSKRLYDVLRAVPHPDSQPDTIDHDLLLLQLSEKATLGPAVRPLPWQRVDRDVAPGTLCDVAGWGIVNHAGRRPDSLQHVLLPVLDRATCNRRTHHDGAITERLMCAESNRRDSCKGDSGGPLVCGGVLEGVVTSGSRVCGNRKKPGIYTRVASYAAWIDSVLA

This test concerns the target Factor D (Homo sapiens (Human), UniProt P00746). Put plainly: Factor D esterolytic assay. The class given is biochemical. To be noted: Z-Lys-SBzl substrate, 100 mM HEPES, 500 mM NaCl, pH 7.5, 10% DMSO; tested a minimum of three times; read-out: Measured Ki (IC50) Value for Compounds: IC50. As to the method:
The IC50 value of a compound (i.e., the concentration of the compound that inhibits 50% of the enzymatic activity) was calculated according to the procedure reported in U.S. Pat. No. 6,653,340 B1, e.g., column 74 (incorporated by reference).
Specifically, the compounds were dissolved in a stock solution of DMSO at 10.0 or 100 mM. A portion of this stock solution was added to assay buffer in a final volume of 50 μL. Controls included buffer alone and enzyme solutions to which DMSO was added. Substrate was added to the reaction wells immediately or after incubation at room temperature. The reaction rates were measured spectrophotometrically by the generation of product at 405 nm for 600 sec. Background absorbance at 690 nm was measured and subtracted from the absorbance at 405 nm for each well.
The reaction rate for enzyme alone was compared to the rate of enzyme in the presence of inhibitor and the percent inhibition was calculated as shown below: […]
An established esterolytic assay for the measurement of Factor D activity and inhibition of Factor D activity was used (Kam, C. M.; McRae, B. J.; Harper, J. W.; Niemann, M. A.; Volanakis, J. E.; Powers, J. C. Human complement proteins D, C2, and B Active site mapping with peptide thioester substrates. J Biol. Chem. 1987, 262, 3444-3451). For this assay Z-Lys-SBzl, 1.29 mM (Kim, S.; Narayana, S. V. L; Volanakis, J. E. Mutational analysis of the substrate binding site of human complement Factor D. Biochemistry. 1994, 33, 14393-14399.) was used as the substrate for Factor D ([…]). Hydrolysis of this compound by Factor D liberated a free sulfhydryl group which is then reacted with 5,5′-dithiobis(2nitrobenzoic acid) producing an intense yellow color (Habeeb, A. F. S. A. Reaction of protein sulfhydryl groups with Ellman's Reagent. Methods in Enzymol. 1976, 25, 457-464.). The assays were performed in 96 well microtiter plates and rates of hydrolysis were monitored at 405 nm on a Biotek Synergy H1 plate reader. Hydrolysis rates were reported as change in mOD/min. The assay was conducted in 100 mM HEPES, 500 mM NaCl, pH 7.5 containing 10% DMSO in a final volume of 50 μL per well.
An IC50, a compound concentration which inhibits 50% of the enzymatic activity, was calculated. Compounds in the examples were tested a minimum of three times.
For the compound `COc1ccc(CC(=O)O)c(OCc2coc3c(OCC4CC4)cc(-c4cccc(CN)c4)cc23)c1` [Compound 160c, 2-(2-((5-(3-(aminomethyl)phenyl)-7-(cyclopropylmethoxy)benzofuran-3-yl)methoxy)-4-methoxyphenyl)acetic acid], the 50% inhibitory concentration (IC50) (as a rule, the point on the concentration scale where inhibition reaches its midpoint) is < 1000 nM. With `Cc1cccc(CC(=O)O)c1OCc1nn(C(C)C)c2ccc(-c3cccc(CN)c3)cc12` [Compound 306c, 2-(2-((5-(3-(aminomethyl)phenyl)-1-isopropyl-1H-indazol-3-yl)methoxy)-3-methylphenyl)acetic acid] the figure was < 1000 nM; with `C[C@@H](N)c1cccc(-c2ccc3occ(COc4ccccc4CC(=O)O)c3c2)c1` [Compound 52c, (R)-2-(2-((5-(3-(1-aminoethyl)phenyl)benzofuran-3-yl)methoxy)phenyl)acetic acid], < 1000 nM. For `CC(C)Cn1cc(-c2cc(-c3cccc(CN)c3)cc3c(COc4ccccc4CC(=O)O)coc23)cn1` [Compound 129c, 2-(2-((5-(3-(aminomethyl)phenyl)-7-(1-isobutyl-1H-pyrazol-4-yl)benzofuran-3-yl)methoxy)phenyl)acetic acid], the IC50 is < 1000 nM.

`NCc1cccc(-c2cc(-c3ccccc3)c3occ(COc4ccccc4CC(=O)O)c3c2)c1` [Compound 135c, 2-(2-((5-(3-(aminomethyl)phenyl)-7-phenylbenzofuran-3-yl)methoxy)phenyl)acetic acid]: the IC50 is < 1000 nM. The value for `NCc1cccc(-c2ccc3occ(COc4ccc(F)cc4CC(=O)O)c3c2)c1` [Compound 5d, 2-(2-((5-(3-(aminomethyl)phenyl)benzofuran-3-yl)methoxy)-5-fluorophenyl)acetic acid] was < 1000 nM; that for `NCc1cccc(-c2cc(C(=O)O)cc3cc(COc4ccccc4CC(=O)O)oc23)c1` [Compound 37b, 7-(3-(aminomethyl)phenyl)-2-((2-(carboxymethyl)phenoxy)methyl)benzofuran-5-carboxylic acid] was 1000 to 10000 nM. Consider `COc1ccc(CC(=O)O)c(OCc2c(C(F)F)oc3c(C4CC4)cc(-c4cccc(CN)c4)cc23)c1` [Compound 234d, 2-(2-((5-(3-(aminomethyl)phenyl)-7-cyclopropyl-2-(difluoromethyl)benzofuran-3-yl)methoxy)-4-methoxyphenyl)acetic acid], for which the IC50 is < 1000 nM. With `CC(C)n1nc(COc2ccccc2CC(=O)O)c2cc(-c3cccc(CN)c3N)ccc21` [Compound 307c, 2-(2-((5-(2-amino-3-(aminomethyl)phenyl)-1-isopropyl-1H-indazol-3-yl)methoxy)phenyl)acetic acid] the figure was < 1000 nM. With `COc1ccc(CC(=O)O)c(OCc2coc3c2cc(-c2cccc(CN)c2)c2occc23)c1` [Compound 231c, 2-(2-((5-(3-(aminomethyl)phenyl)benzo[1,2-b:3,4-b′]difuran-3-yl)methoxy)-4-methoxyphenyl)acetic acid] the figure was < 1000 nM; with `Cn1nc(NC(=O)c2ccccc2CC(=O)O)c2cc(-c3cccc(CN)c3)ccc21` [Compound 74d, 2-(2-((5-(3-(aminomethyl)phenyl)-1-methyl-1H-indazol-3-yl)carbamoyl)phenyl)acetic acid], < 1000 nM. With `CC(C)n1nc(C(=O)Nc2ccccc2C(=O)O)c2cc(-c3cccc(CN)c3)ccc21` [Compound 314e, 2-(5-(3-(aminomethyl)phenyl)-1-isopropyl-1H-indazole-3-carboxamido)benzoic acid] the figure was > 10000 nM.

Turning to `CCCc1oc2ccc(-c3cccc(CN)c3)cc2c1COc1cc(C)ccc1CC(=O)O` [Compound 285c, 2-(2-((5-(3-(aminomethyl)phenyl)-2-propylbenzofuran-3-yl)methoxy)-4-methylphenyl)acetic acid], the 50% inhibitory concentration (IC50) was < 1000 nM. With `COc1ccc(CC(=O)O)c(OCc2coc3c(C(F)(F)F)cc(-c4cccc(CN)c4)cc23)c1` [Compound 270c, 2-(2-((5-(3-(aminomethyl)phenyl)-7-(trifluoromethyl)benzofuran-3-yl)methoxy)-4-methoxyphenyl)acetic acid] the figure was < 1000 nM; with `NCc1cccc(-c2cc(CC3CCOCC3)c3occ(COc4ccccc4CC(=O)O)c3c2)c1` [Compound 163e, 2-(2-((5-(3-(aminomethyl)phenyl)-7-((tetrahydro-2H-pyran-4-yl)methyl)benzofuran-3-yl)methoxy)phenyl)acetic acid], < 1000 nM. The value for `CC(C)(C)OC(=O)n1cc(COc2ccccc2CC(=O)O)c2cc(-c3cccc(CN)c3)ccc21` [Compound 75d, 2-(2-((5-(3-(aminomethyl)phenyl)-1-(tert-butoxycarbonyl)-1H-indol-3-yl)methoxy)phenyl)acetic acid] was < 1000 nM; that for `COc1cc(-c2cccc(CN)c2)cc2c(COc3c(C)cccc3CC(=O)O)coc12` [Compound 237c, 2-(2-((5-(3-(aminomethyl)phenyl)-7-methoxybenzofuran-3-yl)methoxy)-3-methylphenyl)acetic acid] was < 1000 nM; that for `Cc1cc(-c2cccc(CN)c2)cc2c(COc3ccccc3CC(=O)O)coc12` [Compound 17e, 2-(2-((5-(3-(aminomethyl)phenyl)-7-methylbenzofuran-3-yl)methoxy)phenyl)acetic acid] was < 1000 nM. With `COc1ccc(CC(=O)O)c(OCc2c(C)oc3ccc(-c4cccc([C@@H](C)N)c4)cc23)c1` [Compound 242b, (R)-2-(2-((5-(3-(1-aminoethyl)phenyl)-2-methylbenzofuran-3-yl)methoxy)-4-methoxyphenyl)acetic acid] the figure was < 1000 nM. On to `COc1ccc(CC(=O)O)c(OCc2c(C(C)=O)oc3ccc(-c4cccc(CN)c4)cc23)c1` [Compound 218c, 2-(2-((2-acetyl-5-(3-(aminomethyl)phenyl)benzofuran-3-yl)methoxy)-4-methoxyphenyl)acetic acid], for which the IC50 was < 1000 nM. With `COc1ccc(CC(=O)O)c(OCc2c(C)oc3ccc(-c4cccc(CN)c4O)cc23)c1` [Compound 244d, 2-(2-((5-(3-(aminomethyl)-2-hydroxyphenyl)-2-methylbenzofuran-3-yl)methoxy)-4-methoxyphenyl)acetic acid] the figure was < 1000 nM; with `NCc1cccc(-c2cc(CN3CC[C@H](F)C3)c3occ(COc4ccccc4CC(=O)O)c3c2)c1` [Compound 180d, (S)-2-(2-((5-(3-(aminomethyl)phenyl)-7-((3-fluoropyrrolidin-1-yl)methyl)benzofuran-3-yl)methoxy)phenyl)acetic acid], < 1000 nM; with `CN(Cc1cc(-c2cccc(CN)c2)cc2c(COc3ccccc3CC(=O)O)coc12)CC1CC1` [Compound 263e, 2-(2-((5-(3-(aminomethyl)phenyl)-7-(((cyclopropylmethyl)(methyl)amino)methyl)benzofuran-3-yl)methoxy)phenyl)acetic acid], < 1000 nM. With `NCc1cc(-c2cc3c(COc4ccccc4CC(=O)O)coc3c3ccoc23)ccn1` [Compound 288d, 2-(2-((5-(2-(aminomethyl)pyridin-4-yl)benzo[1,2-b:3,4-b′]difuran-3-yl)methoxy)phenyl)acetic acid] the figure was < 1000 nM; with `NCc1cccc(-c2cc(-c3cccc(CN)c3)c3oc(C(=O)O)c(COc4ccccc4CC(=O)O)c3c2)c1` [Compound 58f, 5,7-bis(3-(aminomethyl)phenyl)-3-((2-(carboxymethyl)phenoxy)methyl)benzofuran-2-carboxylic acid], < 1000 nM.
